Assay results: ChEMBL document CHEMBL1144054, “Two new bromophenols from the red alga odonthalia corymbifera” (J Nat Prod, 1999)

Assay: Inhibition of yeast alpha-glucosidase by colorimetric method
Design: species or system Saccharomyces cerevisiae

IC50	Compound
89 µM	OCc1cc(O)c(O)c(Br)c1Br [LANOSOL]
0.098 µM	Oc1cc(COCc2cc(O)c(O)c(Br)c2Br)c(Br)c(Br)c1O
25 µM	OCc1cc(Br)c(O)c(Oc2c(CO)cc(Br)c(O)c2O)c1Br
